Reference: ChEMBL document CHEMBL3832881, “CO-ADD antimicrobial screening data of OSM samples” (2017)
Converted amounts (≈) assume the structure as drawn.

Assays:
Staphylococcus aureus [1] = experiment: Antibacterial activity against Staphylococcus aureus MRSA ATCC 43300; Growth inhibition at 32 ug/mL in CAMBH media using NBS plates.; assay type: functional, ATCC 43300; MRSA; details: ASSAY_TEST Inhibition of Bacterial Growth, CONC 32 ug.mL-1, detection method Absorption (OD600), MEDIA CAMHB, plate type NBS, 384well, time 18 hr
Escherichia coli [2] = experiment: Antibacterial activity against Escherichia coli ATCC 25922; Growth inhibition at 32 ug/mL in CAMBH media using NBS plates.; assay type: functional, ATCC 25922; Type strain; details: Type strain, ASSAY_TEST Inhibition of Bacterial Growth, CONC 32 ug.mL-1, detection method Absorption (OD600), MEDIA CAMHB, plate type NBS, 384well, time 18 hr
Klebsiella pneumoniae [3] = experiment: Antibacterial activity against Klebsiella pneumoniae MDR ATCC 70063; Growth inhibition at 32 ug/mL in CAMBH media using NBS plates.; assay type: functional, ATCC 700603; MDR; details: ATCC 700603, ASSAY_TEST Inhibition of Bacterial Growth, CONC 32 ug.mL-1, detection method Absorption (OD600), MEDIA CAMHB, plate type NBS, 384well, time 18 hr
Pseudomonas aeruginosa [4] = experiment: Antibacterial activity against Pseudomonas aeruginosa ATCC 27853; Growth inhibition at 32 ug/mL in CAMBH media using NBS plates.; assay type: functional, ATCC 27853; Type strain; details: Type strain, ASSAY_TEST Inhibition of Bacterial Growth, CONC 32 ug.mL-1, detection method Absorption (OD600), MEDIA CAMHB, plate type NBS, 384well, time 18 hr
Acinetobacter baumannii [5] = experiment: Antibacterial activity against Acinetobacter baumannii ATCC 19606; Growth inhibition at 32 ug/mL in CAMBH media using NBS plates.; assay type: functional, ATCC 19606; Type strain; details: Type strain, ASSAY_TEST Inhibition of Bacterial Growth, CONC 32 ug.mL-1, detection method Absorption (OD600), MEDIA CAMHB, plate type NBS, 384well, time 18 hr
Candida albicans [6] = experiment: Antifungal activity against Candida albicans ATCC 90028; Growth inhibition at 32 ug/mL in YNB media using NBS plates.; assay type: functional, ATCC 90028; CLSI reference; details: CLSI reference, ASSAY_TEST Inhibition of Fungal Growth, CONC 32 ug.mL-1, detection method Absorption (OD600), plate type NBS, 384well, time 18 hr
Cryptococcus neoformans [7] = experiment: Antifungal activity against Cryptococcus neoformans H99 ATCC 208821; Growth inhibition at 32 ug/mL in YNB media using NBS plates.; assay type: functional, ATCC 208821; H99 Type strain; details: H99 Type strain, ASSAY_TEST Inhibition of Fungal Growth, CONC 32 ug.mL-1, detection method Resazurin, Absorption (OD600-OD570), plate type NBS, 384well, time 18 hr
Staphylococcus aureus [8] = experiment: Antibacterial activity against Staphylococcus aureus MRSA ATCC 43300; MIC in CAMBH media using NBS plates.; assay type: functional, ATCC 43300; MRSA; details: ASSAY_TEST Inhibition of Bacterial Growth, detection method Absorption (OD600), MEDIA CAMHB, plate type NBS, 384well, time 18 hr
Escherichia coli [9] = experiment: Antibacterial activity against Escherichia coli ATCC 25922; MIC in CAMBH media using NBS plates.; assay type: functional, ATCC 25922; Type strain; details: Type strain, ASSAY_TEST Inhibition of Bacterial Growth, detection method Absorption (OD600), MEDIA CAMHB, plate type NBS, 384well, time 18 hr
Klebsiella pneumoniae [10] = experiment: Antibacterial activity against Klebsiella pneumoniae MDR ATCC 70063; MIC in CAMBH media using NBS plates.; assay type: functional, ATCC 700603; MDR; details: ATCC 700603, ASSAY_TEST Inhibition of Bacterial Growth, detection method Absorption (OD600), MEDIA CAMHB, plate type NBS, 384well, time 18 hr
Pseudomonas aeruginosa [11] = experiment: Antibacterial activity against Pseudomonas aeruginosa ATCC 27853; MIC in CAMBH media using NBS plates.; assay type: functional, ATCC 27853; Type strain; details: Type strain, ASSAY_TEST Inhibition of Bacterial Growth, detection method Absorption (OD600), MEDIA CAMHB, plate type NBS, 384well, time 18 hr
Acinetobacter baumannii [12] = experiment: Antibacterial activity against Acinetobacter baumannii ATCC 19606; MIC in CAMBH media using NBS plates.; assay type: functional, ATCC 19606; Type strain; details: Type strain, ASSAY_TEST Inhibition of Bacterial Growth, detection method Absorption (OD600), MEDIA CAMHB, plate type NBS, 384well, time 18 hr
Candida albicans [13] = experiment: Antifungal activity against Candida albicans ATCC 90028; MIC in YNB media using NBS plates.; assay type: functional, ATCC 90028; CLSI reference; details: CLSI reference, ASSAY_TEST Inhibition of Fungal Growth, detection method Absorption (OD630), plate type NBS, 384well, time 18 hr
Cryptococcus neoformans [14] = experiment: Antifungal activity against Cryptococcus neoformans H99 ATCC 208821; MIC in YNB media using NBS plates.; assay type: functional, ATCC 208821; H99 Type strain; details: H99 Type strain, ASSAY_TEST Inhibition of Fungal Growth, detection method Resazurin, Absorption (OD600-OD570), plate type NBS, 384well, time 18 hr
[15] = Cytotoxicity against HEK293 cells; CC50 by Resazurin assay in DMEM (10% FBS) media using TC plates; assay type: toxicity, cell-based, ATCC CRL1573; set-up: time 18 hr; details: human

c1cc2c(s1)CCOC21CCN(Cc2ccc3c(c2)OCCO3)CC1
inhibition at 32 µg/mL (Staphylococcus aureus [1]): 17.4%
inhibition at 32 µg/mL (Escherichia coli [2]): 16.1%
inhibition at 32 µg/mL (Klebsiella pneumoniae [3]): 19.3%
inhibition at 32 µg/mL (Pseudomonas aeruginosa [4]): 8.6%
inhibition at 32 µg/mL (Acinetobacter baumannii [5]): 10.2%
inhibition at 32 µg/mL (Candida albicans [6]): 1%
inhibition at 32 µg/mL (Cryptococcus neoformans [7]): -5.8%

Cc1cc(/C=C2\S/C(=N\c3ccccc3)NC2=O)c(C)n1-c1ccc(C(F)(F)F)cc1
inhibition at 32 µg/mL (Staphylococcus aureus [1]): 17.9%
inhibition at 32 µg/mL (Escherichia coli [2]): 6.8%
inhibition at 32 µg/mL (Klebsiella pneumoniae [3]): 6.7%
inhibition at 32 µg/mL (Pseudomonas aeruginosa [4]): 7.3%
inhibition at 32 µg/mL (Acinetobacter baumannii [5]): 9.1%
inhibition at 32 µg/mL (Candida albicans [6]): 9.8%
inhibition at 32 µg/mL (Cryptococcus neoformans [7]): -1.7%

c1ccc(CN2CCC3(CC2)OCCc2ccsc23)cc1
inhibition at 32 µg/mL (Staphylococcus aureus [1]): 17.1%
inhibition at 32 µg/mL (Escherichia coli [2]): 17.1%
inhibition at 32 µg/mL (Klebsiella pneumoniae [3]): 8.6%
inhibition at 32 µg/mL (Pseudomonas aeruginosa [4]): 11.9%
inhibition at 32 µg/mL (Acinetobacter baumannii [5]): 9.8%
inhibition at 32 µg/mL (Candida albicans [6]): 3.6%
inhibition at 32 µg/mL (Cryptococcus neoformans [7]): -4%

c1ccc(CN2CCC3(CC2)OCCc2cc(-c4ccccc4)sc23)cc1
inhibition at 32 µg/mL (Staphylococcus aureus [1]): 18.9%
inhibition at 32 µg/mL (Escherichia coli [2]): 14.3%
inhibition at 32 µg/mL (Klebsiella pneumoniae [3]): 12.4%
inhibition at 32 µg/mL (Pseudomonas aeruginosa [4]): -1.5%
inhibition at 32 µg/mL (Acinetobacter baumannii [5]): 6.6%
inhibition at 32 µg/mL (Candida albicans [6]): 9.1%
inhibition at 32 µg/mL (Cryptococcus neoformans [7]): -0.6%

CCN1C(=O)c2cccc3c(-n4cc(CN5CCCNCCN(Cc6cn(-c7ccc8c9c(cccc79)C(=O)N(CC)C8=O)nn6)CCCNCC5)nn4)ccc(c23)C1=O.O=C(O)C(F)(F)F.O=C(O)C(F)(F)F
inhibition at 32 µg/mL (Staphylococcus aureus [1]): 54%
inhibition at 32 µg/mL (Escherichia coli [2]): 20.4%
inhibition at 32 µg/mL (Klebsiella pneumoniae [3]): 17.2%
inhibition at 32 µg/mL (Pseudomonas aeruginosa [4]): 15.2%
inhibition at 32 µg/mL (Acinetobacter baumannii [5]): 31.4%
inhibition at 32 µg/mL (Candida albicans [6]): 5.2%
inhibition at 32 µg/mL (Cryptococcus neoformans [7]): 1.4%
MIC (Staphylococcus aureus [8]): > 32 µg/mL
MIC (Escherichia coli [9]): > 32 µg/mL
MIC (Klebsiella pneumoniae [10]): > 32 µg/mL
MIC (Pseudomonas aeruginosa [11]): > 32 µg/mL
MIC (Acinetobacter baumannii [12]): > 32 µg/mL
MIC (Candida albicans [13]): > 32 µg/mL
MIC (Cryptococcus neoformans [14]): > 32 µg/mL
CC50 at 18 h [15]: > 32 µg/mL

Clc1ccc(-c2nnc3cncc(OCCc4ccccc4)n23)cc1
inhibition at 32 µg/mL (Staphylococcus aureus [1]): 14.5%
inhibition at 32 µg/mL (Escherichia coli [2]): 5.2%
inhibition at 32 µg/mL (Klebsiella pneumoniae [3]): 7.5%
inhibition at 32 µg/mL (Pseudomonas aeruginosa [4]): 8.6%
inhibition at 32 µg/mL (Acinetobacter baumannii [5]): 5.7%
inhibition at 32 µg/mL (Candida albicans [6]): 88.8%
inhibition at 32 µg/mL (Cryptococcus neoformans [7]): -0.5%
MIC (Staphylococcus aureus [8]): > 32 µg/mL
MIC (Escherichia coli [9]): > 32 µg/mL
MIC (Klebsiella pneumoniae [10]): > 32 µg/mL
MIC (Pseudomonas aeruginosa [11]): > 32 µg/mL
MIC (Acinetobacter baumannii [12]): > 32 µg/mL
MIC (Candida albicans [13]): 16 µg/mL (≈ 45.6 µM)
MIC (Cryptococcus neoformans [14]): > 32 µg/mL
CC50 at 18 h [15]: > 32 µg/mL

CC(C)C[C@H](NC(=O)[C@H](CCCCN)NC(=O)Cn1cc(CN2CCCNCCNCCCNCC2)nn1)C(=O)N[C@H](C(=O)N[C@@H](Cc1ccccc1)C(=O)N[C@@H](Cc1ccccc1)C(=O)O)C(C)C
inhibition at 32 µg/mL (Staphylococcus aureus [1]): 16.9%
inhibition at 32 µg/mL (Escherichia coli [2]): 21.4%
inhibition at 32 µg/mL (Klebsiella pneumoniae [3]): 6%
inhibition at 32 µg/mL (Pseudomonas aeruginosa [4]): 5%
inhibition at 32 µg/mL (Acinetobacter baumannii [5]): 13.1%
inhibition at 32 µg/mL (Candida albicans [6]): 1.3%
inhibition at 32 µg/mL (Cryptococcus neoformans [7]): -3.4%

COc1ccc(-n2c(C)cc(/C=C3\S/C(=N\c4ccccc4)NC3=O)c2C)cc1
inhibition at 32 µg/mL (Staphylococcus aureus [1]): 10.6%
inhibition at 32 µg/mL (Escherichia coli [2]): 2.8%
inhibition at 32 µg/mL (Klebsiella pneumoniae [3]): -1.1%
inhibition at 32 µg/mL (Pseudomonas aeruginosa [4]): -4.2%
inhibition at 32 µg/mL (Acinetobacter baumannii [5]): -2.8%
inhibition at 32 µg/mL (Candida albicans [6]): 7.8%
inhibition at 32 µg/mL (Cryptococcus neoformans [7]): -4.3%

Clc1ccccc1-c1nnc2cncc(OCCc3ccccc3)n12
inhibition at 32 µg/mL (Staphylococcus aureus [1]): 15.3%
inhibition at 32 µg/mL (Escherichia coli [2]): 17.8%
inhibition at 32 µg/mL (Klebsiella pneumoniae [3]): 6.2%
inhibition at 32 µg/mL (Pseudomonas aeruginosa [4]): 14.7%
inhibition at 32 µg/mL (Acinetobacter baumannii [5]): 5.2%
inhibition at 32 µg/mL (Candida albicans [6]): 1.8%
inhibition at 32 µg/mL (Cryptococcus neoformans [7]): -5.6%
